The results in this text go back to patent US12110295B2, “WD40 repeat domain protein 5 (WDR5) degradation/disruption compounds and methods of use” (Icahn School of Medicine at Mount Sinai, priority 2018, dated 2024).

This test addresses WDR5 (Homo sapiens, UniProt P61964). As to the kind of experiment: Screening of putative WDR5 degraders by Western blot in MV4;11 and/or MIAPACA2 cells. It counts as cell-based. The arrangement: After WDR5 degrader treatment, cells were collected and lysed; endogenous in cells; host or cells: MV4;11 and/or MIAPACA2. The conditions noted are these: summary of screening, FIGS. 6-10. The method, boiled down:
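MV4;11 (1×10^6/well) or MIAPACA2 (1×10^5/well) cells treated 18 h with compound at paired doses between 0.1 and 10 μM, DMSO as control. Total lysates immunoblotted for WDR5 with vinculin, tubulin or GAPDH loading controls; fluorescent secondary detection.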
On the technique in general: In western blotting, separated proteins are transferred to a membrane and probed.
Regarding `Cc1ncsc1-c1ccc(CNC(=O)[C@@H]2C[C@@H](O)CN2C(=O)[C@@H](NC(=O)CCCCCCC(=O)N2CC=C(c3cc(NC(=O)c4c[nH]c(=O)cc4C(F)(F)F)c(N4C[C@@H](C)N(C)[C@@H](C)C4)cc3F)CC2)C(C)(C)C)cc1` [XF078-43, N-(4-fluoro-5-(1-(8-(((S)-1-((2S,4R)-4-hydroxy-2-((4-(4-methylthiazol-5-yl)benzyl)carbamoyl)pyrrolidin-1-yl)-3,3-dimethyl-1-oxobutan-2-yl)amino)-8-oxooctanoyl)-1,2,3,6-tetrahydropyridin-4-yl)-2-((3S,5R)-3,4,5-trimethylpiperazin-1-yl)phenyl)-6-oxo-4-(trifluoromethyl)-1,6-dihydropyridine-3-carboxamide], the “effective degradation of WDR5 in MV4;11 and/or MIAPACA2 cells” value (shortened to “effective degradation of WDR5”) was “able to effectively degrade WDR5”.

In the case of `Cc1ncsc1-c1ccc(CNC(=O)[C@@H]2C[C@@H](O)CN2C(=O)[C@@H](NC(=O)CCCCCCCCC(=O)N2CCN(c3ncc(-c4cc(NC(=O)c5ccc(F)cc5C(F)(F)F)c(N5C[C@@H](C)N(C)[C@@H](C)C5)cc4F)cn3)CC2)C(C)(C)C)cc1` [XF078-114, (2S,4R)-1-((S)-2-(10-(4-(5-(2-fluoro-5-(4-fluoro-2-(trifluoromethyl)benzamido)-4-((3S,5R)-3,4,5-trimethylpiperazin-1-yl)phenyl)pyrimidin-2-yl)piperazin-1-yl)-10-oxodecanamido)-3,3-dimethylbutanoyl)-4-hydroxy-N-(4-(4-methylthiazol-5-yl)benzyl)pyrrolidine-2-carboxamide], the “effective degradation of WDR5” value is “able to effectively degrade WDR5”.

With `Cc1ncsc1-c1ccc(CNC(=O)[C@@H]2C[C@@H](O)CN2C(=O)[C@@H](NC(=O)CCCCC(=O)NCCN2CCN(Cc3ccc(F)c(-c4ccc(N5C[C@@H](C)N(C)[C@@H](C)C5)c(NC(=O)c5c[nH]c(=O)cc5C(F)(F)F)c4)c3)CC2)C(C)(C)C)cc1` [XF078-12, N^1-(2-(4-((6-fluoro-3′-(6-oxo-4-(trifluoromethyl)-1,6-dihydropyridine-3-carboxamido)-4′-((3S,5R)-3,4,5-trimethylpiperazin-1-yl)-[1,1′-biphenyl]-3-yl)methyl)piperazin-1-yl)ethyl)-N^6-((S)-1-((2S,4R)-4-hydroxy-2-((4-(4-methylthiazol-5-yl)benzyl)carbamoyl)pyrrolidin-1-yl)-3,3-dimethyl-1-oxobutan-2-yl)adipamide], the “effective degradation of WDR5” value is “able to effectively degrade WDR5”.

As for `C[C@@H]1CN(c2ccc(-c3cc(CN4CCN(CCNC(=O)CCOCCNc5cccc6c5C(=O)N(C5CCC(=O)NC5=O)C6=O)CC4)ccc3F)cc2NC(=O)c2c[nH]c(=O)cc2C(F)(F)F)C[C@H](C)N1C` (stereo partly drawn) [XF078-25, N-(5′-((4-(2-(3-(2-((2-(2,6-dioxopiperidin-3-yl)-1,3-dioxoisoindolin-4-yl)amino)ethoxy)propanamido)ethyl)piperazin-1-yl)methyl)-2′-fluoro-4-((3S,5R)-3,4,5-trimethylpiperazin-1-yl)-[1,1′-biphenyl]-3-yl)-6-oxo-4-(trifluoromethyl)-1,6-dihydropyridine-3-carboxamide], the “effective degradation of WDR5” value is reported as “able to effectively degrade WDR5”.

On to `Cc1ncsc1-c1ccc(CNC(=O)[C@@H]2C[C@@H](O)CN2C(=O)[C@@H](NC(=O)CCCC(=O)N2CCN(Cc3cnc(N4CC=C(c5cc(NC(=O)c6c[nH]c(=O)cc6C(F)(F)F)c(N6C[C@@H](C)N(C)[C@@H](C)C6)cc5F)CC4)nc3)CC2)C(C)(C)C)cc1` [XF078-142, N-(4-fluoro-5-(1-(5-((4-(5-(((S)-1-((2S,4R)-4-hydroxy-2-((4-(4-methylthiazol-5-yl)benzyl)carbamoyl)pyrrolidin-1-yl)-3,3-dimethyl-1-oxobutan-2-yl)amino)-5-oxopentanoyl)piperazin-1-yl)methyl)pyrimidin-2-yl)-1,2,3,6-tetrahydropyridin-4-yl)-2-((3S,5R)-3,4,5-trimethylpiperazin-1-yl)phenyl)-6-oxo-4-(trifluoromethyl)-1,6-dihydropyridine-3-carboxamide], for which the “effective degradation of WDR5” value was “able to effectively degrade WDR5”.

For `Cc1ncsc1-c1ccc(CNC(=O)[C@@H]2C[C@@H](O)CN2C(=O)[C@@H](NC(=O)CCOCCOCCOCCOCCC(=O)N2CCN(Cc3cnc(N4CC=C(c5cc(NC(=O)c6c[nH]c(=O)cc6C(F)(F)F)c(N6C[C@@H](C)N(C)[C@@H](C)C6)cc5F)CC4)nc3)CC2)C(C)(C)C)cc1` [XF078-138, N-(4-fluoro-5-(1-(5-((4-((S)-18-((2S,4R)-4-hydroxy-2-((4-(4-methylthiazol-5-yl)benzyl)carbamoyl)pyrrolidine-1-carbonyl)-19,19-dimethyl-16-oxo-4,7,10,13-tetraoxa-17-azaicosanoyl)piperazin-1-yl)methyl)pyrimidin-2-yl)-1,2,3,6-tetrahydropyridin-4-yl)-2-((3S,5R)-3,4,5-trimethylpiperazin-1-yl)phenyl)-6-oxo-4-(trifluoromethyl)-1,6-dihydropyridine-3-carboxamide], the “effective degradation of WDR5” value is “able to effectively degrade WDR5”.

With `Cc1ncsc1-c1ccc([C@H](C)NC(=O)[C@@H]2C[C@@H](O)CN2C(=O)[C@@H](NC(=O)CCCCCCCCCC(=O)N2CCN(c3ccc(-c4cc(NC(=O)c5c[nH]c(=O)cc5C(F)(F)F)c(N5C[C@@H](C)N(C)[C@@H](C)C5)cc4F)cn3)CC2)C(C)(C)C)cc1` [XF067-134, N-(4-fluoro-5-(6-(4-(11-(((S)-1-((2S,4R)-4-hydroxy-2-(((S)-1-(4-(4-methylthiazol-5-yl)phenyl)ethyl)carbamoyl)pyrrolidin-1-yl)-3,3-dimethyl-1-oxobutan-2-yl)amino)-11-oxoundecanoyl)piperazin-1-yl)pyridin-3-yl)-2-((3S,5R)-3,4,5-trimethylpiperazin-1-yl)phenyl)-6-oxo-4-(trifluoromethyl)-1,6-dihydropyridine-3-carboxamide], the “effective degradation of WDR5” value is “able to effectively degrade WDR5”.

With `C[C@@H]1CN(c2ccc(-c3cc(CN4CCN(CCNC(=O)CCCCNc5cccc6c5C(=O)N(C5CCC(=O)NC5=O)C6=O)CC4)ccc3F)cc2NC(=O)c2c[nH]c(=O)cc2C(F)(F)F)C[C@H](C)N1C` (stereo partly drawn) [XF078-21, N-(5′-((4-(2-(5-((2-(2,6-dioxopiperidin-3-yl)-1,3-dioxoisoindolin-4-yl)amino)pentanamido)ethyl)piperazin-1-yl)methyl)-2′-fluoro-4-((3S,5R)-3,4,5-trimethylpiperazin-1-yl)-[1,1′-biphenyl]-3-yl)-6-oxo-4-(trifluoromethyl)-1,6-dihydropyridine-3-carboxamide], the “effective degradation of WDR5” value was “able to effectively degrade WDR5”.

With `C[C@@H]1CN(c2ccc(-c3cc(CN4CCN(CCNC(=O)CCOCCOCCOCCOCCNc5cccc6c5C(=O)N(C5CCC(=O)NC5=O)C6=O)CC4)ccc3F)cc2NC(=O)c2c[nH]c(=O)cc2C(F)(F)F)C[C@H](C)N1C` (stereo partly drawn) [XF078-28, N-(5′-((4-(1-((2-(2,6-dioxopiperidin-3-yl)-1,3-dioxoisoindolin-4-yl)amino)-15-oxo-3,6,9,12-tetraoxa-16-azaoctadecan-18-yl)piperazin-1-yl)methyl)-2′-fluoro-4-((3S,5R)-3,4,5-trimethylpiperazin-1-yl)-[1,1′-biphenyl]-3-yl)-6-oxo-4-(trifluoromethyl)-1,6-dihydropyridine-3-carboxamide], the “effective degradation of WDR5” value is reported as “able to effectively degrade WDR5”.

On to `Cc1ncsc1-c1ccc(CNC(=O)[C@@H]2C[C@@H](O)CN2C(=O)[C@@H](NC(=O)COCCOCCOCCOCCOCC(=O)N2CCN(Cc3cnc(N4CC=C(c5cc(NC(=O)c6c[nH]c(=O)cc6C(F)(F)F)c(N6C[C@@H](C)N(C)[C@@H](C)C6)cc5F)CC4)nc3)CC2)C(C)(C)C)cc1` [XF078-139, N-(4-fluoro-5-(1-(5-((4-((S)-19-((2S,4R)-4-hydroxy-2-((4-(4-methylthiazol-5-yl)benzyl)carbamoyl)pyrrolidine-1-carbonyl)-20,20-dimethyl-17-oxo-3,6,9,12,15-pentaoxa-18-azahenicosanoyl)piperazin-1-yl)methyl)pyrimidin-2-yl)-1,2,3,6-tetrahydropyridin-4-yl)-2-((3S,5R)-3,4,5-trimethylpiperazin-1-yl)phenyl)-6-oxo-4-(trifluoromethyl)-1,6-dihydropyridine-3-carboxamide], for which the “effective degradation of WDR5” value is listed as “able to effectively degrade WDR5”.

Regarding `Cc1ncsc1-c1ccc(CNC(=O)[C@@H]2C[C@@H](O)CN2C(=O)[C@@H](NC(=O)COCCOCCNC(=O)CCC(=O)N2CCN(c3ccc(-c4cc(NC(=O)c5c[nH]c(=O)cc5C(F)(F)F)c(N5C[C@@H](C)N(C)[C@@H](C)C5)cc4F)cn3)CC2)C(C)(C)C)cc1` [XF067-142, N-(4-fluoro-5-(6-(4-((S)-3-((2S,4R)-4-hydroxy-2-((4-(4-methylthiazol-5-yl)benzyl)carbamoyl)pyrrolidine-1-carbonyl)-2,2-dimethyl-5,14-dioxo-7,10-dioxa-4,13-diazaheptadecan-17-oyl)piperazin-1-yl)pyridin-3-yl)-2-((3S,5R)-3,4,5-trimethylpiperazin-1-yl)phenyl)-6-oxo-4-(trifluoromethyl)-1,6-dihydropyridine-3-carboxamide], the “effective degradation of WDR5” value is given as “able to effectively degrade WDR5”.

Consider `C[C@@H]1CN(c2cc(F)c(-c3cnc(N4CCN(C(=O)CCCCCCNc5cccc6c5C(=O)N(C5CCC(=O)NC5=O)C6=O)CC4)nc3)cc2NC(=O)c2ccc(F)cc2C(F)(F)F)C[C@H](C)N1C` (stereo partly drawn) [XF078-121, N-(5-(2-(4-(7-((2-(2,6-dioxopiperidin-3-yl)-1,3-dioxoisoindolin-4-yl)amino)heptanoyl)piperazin-1-yl)pyrimidin-5-yl)-4-fluoro-2-((3S,5R)-3,4,5-trimethylpiperazin-1-yl)phenyl)-4-fluoro-2-(trifluoromethyl)benzamide], for which the “effective degradation of WDR5” value is “able to effectively degrade WDR5”.
